Data as given in paper PMC9791135, “A penetratin-derived peptide reduces the membrane permeabilization and cell toxicity of α-synuclein oligomers” (The Journal of Biological Chemistry, 2022).
Where a SMILES comes first, the peptide text is derived from it.

Legend:
[1] = Calcein release assay, substance alone; details: for Peptide concentration from which membrane toxicity is shown: peptide alone, calcein-filled DOPG LUVs, tested range 10^−1–10^−6 mg/ml
Method: αSOs show cytotoxic properties, which have been attributed to their membrane-disrupting ability ([69]). To examine the effect of peptides on membrane permeabilization by αSOs, we used a simple calcein release assay. αSOs, peptides, and aSO–peptide mixtures at 10^−6 to 10^−1 mg/ml peptide were added to calcein-loaded DOPG vesicle, and the extent of calcein release was monitored for 30 min by the increase in fluorescence as calcein leaks out upon membrane permeabilization, leading to dilution and the loss of self-quenching. The time-dependent calcein release data from DOPG vesicles ([70], [71]) in the presence of peptides, αSOs, and αSO–peptides are shown in Figs. S9 and S10. In order to allow easy comparison of all peptides, the calcein release versus concentration (peptides and αSOs) were plotted at the plateau point of release (Fig. 5, A–C). […] Figure 5D compares calcein release percentages of data represented in Figure 5, A and B at peptide concentrations between 0.001 and 0.1 mg/ml, where we see the largest extent of calcein release in general.
Calcein-filled vesicles of DOPG were prepared as described before ([38]). Briefly, DOPG was dissolved in PBS to […], in the presence of calcein at self-quenching concentrations (70 mM) and subjected to 10 freeze–thaw cycles between liquid nitrogen and a 50 °C water bath. After 21 times extrusion through a 100 nm filter, free calcein was separated from vesicles with a PD-10 desalting column (GE Healthcare). Vesicles were stored at 4 °C and used for calcein release assays within 24 h.
Calcein release was measured by mixing peptides and/or αSOs at a final concentration of 10^−6 to 10^−1 mg/ml and 5.2 μg/ml, respectively, in 148 μl with 2 μl of calcein vesicles, and were then loaded onto a 96-well plate (Nunc, Thermo Fischer Scientific) in triplicate. The plate was sealed with Crystal clear sealing tape (Hampton Research), and fluorescence was measured (excitation: 485 nm and emission: 520 nm) for 1 h at 37 °C every 2 min with a 2 s autoshake before each reading on a fluorescence plate reader (Tecan). Finally, 2 μl Triton X-100 (0.2% [v/v]) was added to lyse vesicles, and the maximal fluorescence signal was measured for 20 min under the same reading condition. Background fluorescence was subtracted, and the average signal of calcein release before addition of Triton X-100 (F), after treatment with Triton X-100 (Ft) and for the buffer control (F0) were determined, and calcein release percentage was calculated as follow (Equation 1):(1) CalceinRelease%(CR%)=(F−F0)/(Ft−F0)

SH-SY5Y cells = details: αSOs with peptide, MTT
Method: The effect of the peptides on αSOs toxicity in SH-SY5Y cells using 3-(4, 5-dimethylthiazol-2-yl)-2,5-diphenyltetrazolium bromide (MTT) cell viability assay was also tested to complement our calcein data.
We used the MTT assay to measure cell viability after 24 h treatment with αSOs in the presence of peptides. SH-SY5Y cells were seeded in 96-well plates at a density of 5 × 10^4 cell/ml in Dulbecco's modified Eagle's medium supplemented with 10% FBS, 100 unit/ml penicillin, and […]. The cells were incubated in a humidified atmosphere incubator with 5% CO2 and 95% humidity at 37 °C for 24 h. The culture medium was then replaced with fresh medium containing 10 μM αSOs with peptides and incubated for another 24 h. Then the cell medium was replaced with a fresh medium containing 20% MTT (5 mg/ml), and the cells were incubated for an additional 4 h at 37 °C. Then 100 μl of dimethyl sulfoxide was added to dissolve formazan crystals by incubating for 30 min on a shaker at RT. Consequently, absorbance was measured by using a plate reader at 570 nm.

[2] = ThT monitoring of peptides alone for self-fibrillation; format: physicochemical; details: peptide alone (controls 1 mg/mL), 37 °C with shaking
Method: To test the effects of these selected nine peptides on the aggregation of α-syn, we performed a thioflavin T (ThT) fluorescence assay in the presence of 1 mg/ml α-syn and 0 to 0.5 mg/ml peptide for 48 h (raw data in Fig. S3). Furthermore, the peptides alone were monitored for self-fibrillation. […] High concentrations of p222, p194, and p249 led to a decline in ThT fluorescence after reaching a plateau, possibly because of the formation of insoluble amorphous species. We also carried out seeding experiments by adding 5% sonicated preaggregated α-syn fibrils to the ThT assay.
About 150 μl of 70 μM (1 mg/ml) α-syn, 40 μM ThT, and varying amounts of peptides (0, 0.06, 0.125, 0. 25, 0.375, and 0.5 mg/ml) were transferred in triplicates to a black COSTAR 96-well clear bottom plate (Nunc, Thermo Fisher Scientific), and including a 3 mm diameter glass bead (Glaswarenfabrik Karl Hecht GmbH & Co KG) per well to increase reproducibility ([100]). The plate was sealed with Crystal Clear sealing tape (Hampton Research) and incubated at 37 °C in a CLARIOstar Plus (BMG LABTECH) fluorescence plate reader. Fibrillation was carried out for ∼48 h with 300 rpm double orbital shaking between the readings for 372 s (excitation/emission: 448∕485 nm). […]
[picture] […] The effect of the 9 peptides on α-syn fibrillation monitored by ThT fluorescence. […]

Compound | Peptide concentration from which membrane toxicity is shown [1] | Effect on cell survival in the presence of toxic αSOs, in words (SH-SY5Y cells) | Permeabilization of lipid vesicles by peptide alone ([1]; calcein-loaded DOPG vesicles, 10^−6 to 10^−1 mg/ml peptide, 37 °C, triplicate) | Self-fibrillation of the peptide alone [2]
CC[C@H](C)[C@H](NC(=O)[C@H](Cc1ccccc1)NC(=O)[C@H](Cc1c[nH]c2ccccc12)NC(=O)[C@H](CCCNC(=N)N)NC(=O)[C@H](CC(N)=O)NC(=O)[C@@H](NC(=O)[C@H](CCC(N)=O)NC(=O)[C@H](CCCCN)NC(=O)[C@@H](N)CCSC)[C@@H](C)CC)C(=O)N[C@@H](CCCNC(=N)N)C(=O)N[C@@H](Cc1c[nH]c2ccccc12)C(=O)N[C@@H](CCC(N)=O)C(=O)N[C@@H](CCCCN)C(=O)N[C@@H](CCCCN)C(=O)N[C@@H](CCCNC(=N)N)C(=O)N[C@@H](CCCCN)C(=O)O [p249] (H-MKQINRWFIRWQKKRK-OH; N-terminus and C-terminus assumed) | > 10^−2 mg/ml | did not show positive effects |  | 
CC[C@H](C)[C@H](NC(=O)[C@H](Cc1c[nH]c2ccccc12)NC(=O)[C@H](CCCNC(=N)N)NC(=O)[C@H](Cc1c[nH]c2ccccc12)NC(=O)[C@H](CCCCN)NC(=O)[C@@H](NC(=O)[C@H](CCCCN)NC(=O)[C@H](CCC(N)=O)NC(=O)[C@@H](N)CC(N)=O)[C@@H](C)CC)C(=O)N[C@@H](CCC(N)=O)C(=O)N[C@@H](CCCNC(=N)N)C(=O)N[C@@H](Cc1ccccc1)C(=O)N[C@@H](CCCNC(=N)N)C(=O)N[C@@H](CCCCN)C(=O)N[C@@H](CCCCN)C(=O)N[C@@H](CCSC)C(=O)O [p235] (H-NQKIKWRWIQRFRKKM-OH; N-terminus and C-terminus assumed) | > 10^−2 mg/ml | did not show positive effects |  | 
CC(C)C[C@H](NC(=O)[C@H](Cc1c[nH]cn1)NC(=O)[C@H](CO)NC(=O)[C@H](CO)NC(=O)[C@H](C)NC(=O)[C@@H](N)CO)C(=O)N[C@@H](Cc1c[nH]cn1)C(=O)N[C@@H](Cc1c[nH]cn1)C(=O)NCC(=O)N[C@@H](Cc1c[nH]cn1)C(=O)N[C@@H](CO)C(=O)NCC(=O)NCC(=O)O [p168] (H-SASSHLHHGHSGG-OH) |  |  | did not permeabilize lipid vesicles | 
RQIKIWFQNRRFKWKK [p222, penetratin with modulated hydrophobicity] | > 10^−4 mg/ml |  |  | slight self-fibrillation tendencies
